Data published in paper PMC6213309, “Antibacterial Activity and Mechanism of Action of Bovine Lactoferricin Derivatives with Symmetrical Amino Acid Sequences” (International Journal of Molecular Sciences, 2018).
Ends that are not written are not given here.

Tests used:
[1] = system: HEK293 cells; assay: Cytotoxicity, MTT assay; type: cell-based, human; settings: 20–24 h
Protocol: The cytotoxicity of each peptide was determined in HEK293 cells using the thiazolylblue (MTT) assay as described by Zhu. Briefly, HEK293 cells were subcultured overnight in 96-well plates with 10% fetal calf serum and […] at 37 °C in 5% CO2. The cell suspension was then prepared. Two-fold serial dilutions of the peptides were prepared using DMEM. Cell suspensions were added to the plates and incubated for 20–24 h at 37 °C in a cell incubator. Next, 40 μL MTT solution was added to every well, and the plates were incubated for 4 h at 37 °C. Finally, 150 μL DMSO was added to each well, the plates were shaken for 10 min, and the absorbance was measured at 492 nm using a microplate reader.

[2] = system: Salmonella pullorum C 7913; type: cell-based; settings: 18 h
[3] = system: S. aureus ATCC 29213; type: cell-based; settings: ATCC 29213, 18 h
[4] = system: E. coli ATCC25922
Protocol: (§1) The antimicrobial activity of the peptides were defined as the minimum inhibitory concentrations (MIC) according to the Clinical and Laboratory Standards Institute broth microdilution method as described previously. Briefly, 50 μL two-fold serial dilutions of peptides (with final concentrations ranging from 0 μM to 256 μM) and 50 μL bacterial fluids diluted with MHB were added to 96-well microtiter plates. The plates were then incubated at 37 °C for 18 h.
We assessed the salt stability, thermal stability, and enzymatic stability of the AMPs. Briefly, E. coli ATCC25922 was selected as the test bacterium. The control group was untreated peptides. Different concentrations of salts (150 mM NaCl, 4.5 mM KCl, 6 μM NH4Cl, 1 mM MgCl2, […], 8 mM […], 2.5 mM CaCl2, and 4 mM FeCl3) were added to the incubation buffer to examine the effect of each salt on the antimicrobial activities of the peptides. AMPs were treated for 1 h at 100 °C to test the thermal stability. AMPs were also treated with trypsin, pepsin, papain, and protease K at a concentration of 1 mg/mL for 1 h at 37 °C to test enzyme stability.

[5] = system: S. aureus ATCC 25923; type: cell-based; settings: ATCC 25923, 18 h
[6] = system: S. epidermidis ATCC 12228; type: cell-based; settings: ATCC 12228, 18 h
Protocol: (§2) The antimicrobial activity of the peptides were defined as the minimum inhibitory concentrations (MIC) according to the Clinical and Laboratory Standards Institute broth microdilution method as described previously [47]. Briefly, 50 μL two-fold serial dilutions of peptides (with final concentrations ranging from 0 μM to 256 μM) and 50 μL bacterial fluids diluted with MHB were added to 96-well microtiter plates. The plates were then incubated at 37 °C for 18 h.

[7] = system: E. coli UB 1005; type: cell-based; settings: UB 1005, 18 h
Protocol: as §2

[8] = system: Salmonella typhimurium ATCC 14028; type: cell-based; settings: ATCC 14028, 18 h
Protocol: as §2

[9] = system: Salmonella typhimurium C 7731; type: cell-based; settings: murium C 7731, 18 h
Protocol: as §2

[10] = system: E. coli ATCC 25922; type: cell-based; settings: ATCC25922, 18 h
Protocol: as §2

[11] = system: Salmonella enterica subsp. CMCC 50071; settings: MHB, 37 °C, 18 h, peptides 0-256 μM, triplicate samples
Protocol: as §1

CC[C@H](C)[C@H](NC(=O)CN)C(=O)NCC(=O)N[C@@H](C)C(=O)N[C@H](C(=O)N[C@@H](CC(C)C)C(=O)N[C@@H](CCCCN)C(=O)N[C@H](C(=O)N[C@@H](CC(C)C)C(=O)N[C@H](C(=O)N[C@H](C(=O)NCC(=O)N[C@@H](CC(C)C)C(=O)N1CCC[C@H]1C(=O)N[C@@H](C)C(=O)N[C@@H](CC(C)C)C(=O)N[C@H](C(=O)N[C@@H](CO)C(=O)N[C@@H](Cc1c[nH]c2ccccc12)C(=O)N[C@H](C(=O)N[C@@H](CCCCN)C(=O)N[C@@H](CCCNC(=N)N)C(=O)N[C@@H](CCCCN)C(=O)N[C@@H](CCCNC(=N)N)C(=O)N[C@@H](CCC(N)=O)C(=O)N[C@@H](CCC(N)=O)C(N)=O)[C@@H](C)CC)[C@@H](C)CC)[C@@H](C)O)[C@@H](C)O)C(C)C)C(C)C [melittin]
cell viability ([1]; 4 μM): 41.95% | cell viability ([1]; 8 μM): 23.40% | cell viability ([1]; 16 μM): 0%

KWRRWQWRRWK-NH2 [KW-WK]
MIC [2]: 16 µM | MIC [3]: 8 µM | MIC after Papain ([4]; ATCC25922, 1 h): 8 µM | MIC after Pepsin ([4]; ATCC25922, 1 h): 16 µM | MIC after Protease K ([4]; ATCC25922, 1 h): 8 µM | MIC following heating at 100 °C ([4]; ATCC25922, 1 h): 4 µM | MIC in the presence of Ca2+ ([4]; ATCC25922, 18 h): 8 µM | MIC in the presence of Fe3+ ([4]; ATCC25922, 18 h): 4 µM | MIC in the presence of K+ ([4]; ATCC25922, 18 h): 4 µM | MIC in the presence of Mg2+ ([4]; ATCC25922, 18 h): 8 µM | MIC in the presence of NH4+ ([4]; ATCC25922, 18 h): 8 µM | MIC in the presence of Na+ ([4]; ATCC25922, 18 h): 8 µM | MIC in the presence of Zn2+ ([4]; ATCC25922, 18 h): 8 µM | MIC, Control (enzymatic stability) ([4]; ATCC25922, 18 h): 4 µM | MIC, Control (salt stability) ([4]; ATCC25922, 18 h): 4 µM | MIC, Control (thermal stability) ([4]; ATCC25922, 18 h): 4 µM | MIC after Trypsin ([4]; E. coli ATCC25922, peptide treated with 1 mg/mL trypsin, 1 h, 37 °C): >128 µM | MIC [5]: 32 µM | MIC [6]: 8 µM | MIC [7]: 8 µM | MIC [8]: 32 µM | MIC [9]: 16 µM | MIC [10]: 4 µM | MIC [11]: 128 µM
